# Species: Rattus norvegicus
# Assay: Open TG-GATES - Regimen: Single
# Assay type: toxicity, organism-based, Sprague-Dawley
# Design: regimen Single, gender Male, age 6 weeks
# Details: in vivo, iv, 0 mg/kg, route intravenous injection, dose level Control; for APTT / Bas / Eos / Fbg / Hb / Ht / Lym / MCH / MCHC / MCV / Mono / Neu / PT / Plat / RBC / Ret / WBC: tissue Blood; for KIDNEY_L / KIDNEY_R / KIDNEY_TOTAL: tissue Kidney; for LIVER: tissue Liver; for A/G / ALP / ALT / AST / BUN / CRE / Ca / Cl / DBIL / GLC / IP / K / LDH / Na / PL / RALB / TBIL / TC / TG / TP / gamma-GTP: tissue Plasma
smiles,measurement,setting,value
NCCBr [BROMOETHANAMINE],TERMINAL_BW,3 h,221.8 g
same,APTT,3 h,22.1 s
same,Bas,3 h,0%
same,Eos,3 h,0.6%
same,Fbg,3 h,305.4 mg/dL
same,Hb,3 h,13.4 g/dL
same,Ht,3 h,39.5%
same,Lym,3 h,82.4%
same,MCH,3 h,22.5 pg
same,MCHC,3 h,33.9%
same,MCV,3 h,66.4 fL
same,Mono,3 h,2.2%
same,Neu,3 h,14.2%
same,PT,3 h,16.2 s
same,Plat,3 h,118.2 x10_4/uL
same,RBC,3 h,594.4 x10_4/ul
same,Ret,3 h,6.3%
same,WBC,3 h,94.3 x10_2/uL
same,KIDNEY_L,3 h,1 g
same,KIDNEY_R,3 h,1 g
same,KIDNEY_TOTAL,3 h,2 g
same,LIVER,3 h,10.5 g
same,A/G,3 h,1.2
same,ALP,3 h,1743.8 IU/L
same,ALT,3 h,43.2 IU/L
same,AST,3 h,76.2 IU/L
same,BUN,3 h,13.2 mg/dL
same,CRE,3 h,0.1 mg/dL
same,Ca,3 h,10.8 mg/dL
same,Cl,3 h,105.4 meq/L
same,DBIL,3 h,0 mg/dL
same,GLC,3 h,188.4 mg/dL
same,IP,3 h,7.5 mg/dL
same,K,3 h,4.1 meq/L
same,LDH,3 h,174.6 IU/L
same,Na,3 h,142.2 meq/L
same,PL,3 h,131.8 mg/dL
same,RALB,3 h,3 g/dL
same,TBIL,3 h,0.018 mg/dL
same,TC,3 h,70.2 mg/dL
same,TG,3 h,79.8 mg/dL
same,TP,3 h,5.4 g/dL
same,gamma-GTP,3 h,1.6 IU/L
same,TERMINAL_BW,6 h,213.6 g
same,APTT,6 h,23.7 s
same,Bas,6 h,0%
same,Eos,6 h,0.8%
same,Fbg,6 h,313.6 mg/dL
same,Hb,6 h,13.5 g/dL
same,Ht,6 h,39.2%
same,Lym,6 h,80%
same,MCH,6 h,21.6 pg
same,MCHC,6 h,34.4%
same,MCV,6 h,62.7 fL
same,Mono,6 h,3%
same,Neu,6 h,15.8%
same,PT,6 h,15.8 s
same,Plat,6 h,121.6 x10_4/uL
same,RBC,6 h,624.8 x10_4/ul
same,Ret,6 h,6.1%
same,WBC,6 h,83.9 x10_2/uL
same,KIDNEY_L,6 h,0.9 g
same,KIDNEY_R,6 h,1 g
same,KIDNEY_TOTAL,6 h,1.9 g
same,LIVER,6 h,9.2 g
same,A/G,6 h,1.1
same,ALP,6 h,1411.4 IU/L
same,ALT,6 h,39 IU/L
same,AST,6 h,71.2 IU/L
same,BUN,6 h,11 mg/dL
same,CRE,6 h,0.1 mg/dL
same,Ca,6 h,10.3 mg/dL
same,Cl,6 h,104.6 meq/L
same,DBIL,6 h,0 mg/dL
same,GLC,6 h,195.8 mg/dL
same,IP,6 h,9.7 mg/dL
same,K,6 h,4.1 meq/L
same,LDH,6 h,189.6 IU/L
same,Na,6 h,141 meq/L
same,PL,6 h,145.2 mg/dL
same,RALB,6 h,2.9 g/dL
same,TBIL,6 h,0.014 mg/dL
same,TC,6 h,87.2 mg/dL
same,TG,6 h,47.8 mg/dL
same,TP,6 h,5.4 g/dL
same,gamma-GTP,6 h,1.6 IU/L
same,TERMINAL_BW,9 h,218.3 g
same,APTT,9 h,22.5 s
same,Bas,9 h,0%
same,Eos,9 h,0.8%
same,Fbg,9 h,317.8 mg/dL
same,Hb,9 h,13.3 g/dL
same,Ht,9 h,39%
same,Lym,9 h,78.6%
same,MCH,9 h,21.3 pg
same,MCHC,9 h,34%
same,MCV,9 h,62.7 fL
same,Mono,9 h,2%
same,Neu,9 h,18%
same,PT,9 h,16.3 s
same,Plat,9 h,128.4 x10_4/uL
same,RBC,9 h,623.8 x10_4/ul
same,Ret,9 h,6.4%
same,WBC,9 h,84.9 x10_2/uL
same,KIDNEY_L,9 h,0.9 g
same,KIDNEY_R,9 h,1 g
same,KIDNEY_TOTAL,9 h,1.9 g
same,LIVER,9 h,9.1 g
same,A/G,9 h,1.2
same,ALP,9 h,1721.2 IU/L
same,ALT,9 h,33.4 IU/L
same,AST,9 h,64.6 IU/L
same,BUN,9 h,13.6 mg/dL
same,CRE,9 h,0.2 mg/dL
same,Ca,9 h,10.4 mg/dL
same,Cl,9 h,106.4 meq/L
same,DBIL,9 h,0.002 mg/dL
same,GLC,9 h,188.8 mg/dL
same,IP,9 h,9.6 mg/dL
same,K,9 h,4.2 meq/L
same,LDH,9 h,152.6 IU/L
same,Na,9 h,140.6 meq/L
same,PL,9 h,124.4 mg/dL
same,RALB,9 h,2.9 g/dL
same,TBIL,9 h,0.022 mg/dL
same,TC,9 h,68.8 mg/dL
same,TG,9 h,63.4 mg/dL
same,TP,9 h,5.4 g/dL
same,gamma-GTP,9 h,1.6 IU/L
same,TERMINAL_BW,24 h,226.9 g
same,APTT,24 h,21.5 s
same,Bas,24 h,0%
same,Eos,24 h,0.8%
same,Fbg,24 h,316.6 mg/dL
same,Hb,24 h,13.6 g/dL
same,Ht,24 h,39.1%
same,Lym,24 h,79.2%
same,MCH,24 h,21.2 pg
same,MCHC,24 h,34.7%
same,MCV,24 h,61.1 fL
same,Mono,24 h,2.6%
same,Neu,24 h,16.2%
same,PT,24 h,16.4 s
same,Plat,24 h,126.9 x10_4/uL
same,RBC,24 h,640.8 x10_4/ul
same,Ret,24 h,5.5%
same,WBC,24 h,103.5 x10_2/uL
same,KIDNEY_L,24 h,1 g
same,KIDNEY_R,24 h,1 g
same,KIDNEY_TOTAL,24 h,2 g
same,LIVER,24 h,10.4 g
same,A/G,24 h,1.1
same,ALP,24 h,1595.2 IU/L
same,ALT,24 h,41.4 IU/L
same,AST,24 h,71 IU/L
same,BUN,24 h,18 mg/dL
same,CRE,24 h,0.2 mg/dL
same,Ca,24 h,10.8 mg/dL
same,Cl,24 h,106 meq/L
same,DBIL,24 h,0 mg/dL
same,GLC,24 h,191.6 mg/dL
same,IP,24 h,6.8 mg/dL
same,K,24 h,4.9 meq/L
same,LDH,24 h,222.8 IU/L
same,Na,24 h,140.6 meq/L
same,PL,24 h,147.6 mg/dL
same,RALB,24 h,2.9 g/dL
same,TBIL,24 h,0.006 mg/dL
same,TC,24 h,75.8 mg/dL
same,TG,24 h,134.2 mg/dL
same,TP,24 h,5.5 g/dL
same,gamma-GTP,24 h,2 IU/L

# Source: ChEMBL document CHEMBL3885861, “Open TG-GATES”
